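Results reflect a 48-hour exposure of cells in 96-well plates to compound at five concentrations. At the TGI there is no net growth.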
Tests used:
Experiment in all cases: NCI anticancer screen, dose series, 48 h
[1] = system: EKVX NSCLC
[2] = system: NCI-H23 lung
[3] = system: TK-10 renal
[4] = system: SW-620 colon
[5] = system: MOLT-4 leukemia
[6] = system: HOP-62 NSCLC
[7] = system: OVCAR-3 ovarian
[8] = system: LOX IMVI melanoma
[9] = system: A498 renal
[10] = system: UACC-62 melanoma
[11] = system: HT29 colon
[12] = system: SF-295 CNS
[13] = system: NCI-H226 lung
[14] = system: SR leukemia
[15] = system: MDA-MB-435
[16] = system: DU-145 prostate
[17] = system: U251 CNS
[18] = system: HCT-116 colon
[19] = system: SK-MEL-28 melanoma
[20] = system: MCF7 breast
[21] = system: MALME-3M melanoma
[22] = system: SN12C renal
[23] = system: MDA-N
[24] = system: HCT-15 colon
[25] = system: KM12 colon
[26] = system: 786-0 renal
[27] = system: NCI/ADR-RES ovarian
[28] = system: MDA-MB-231 breast
[29] = system: RXF 393 renal
[30] = system: M14 melanoma
[31] = system: IGROV1 ovarian
[32] = system: SNB-75 CNS
[33] = system: K-562 leukemia
[34] = system: RPMI-8226 leukemia
[35] = system: SF-268 CNS
[36] = system: SK-MEL-2 melanoma
[37] = system: OVCAR-8 ovarian
[38] = system: T-47D breast
[39] = system: SK-OV-3 ovarian
[40] = system: CAKI-1 renal
[41] = system: SF-539 CNS
[42] = system: OVCAR-4 ovarian
[43] = system: CCRF-CEM leukemia
[44] = system: SK-MEL-5 melanoma
[45] = system: UACC-257 melanoma
[46] = system: COLO 205 colon
[47] = system: A549 NSCLC
[48] = system: BT-549 breast
[49] = system: HCC-2998 colon
[50] = system: PC-3 prostate
[51] = system: HOP-92 NSCLC
[52] = system: OVCAR-5 ovarian
[53] = system: HS 578T breast
[54] = system: UO-31 renal
[55] = system: HL-60(TB) leukemia
[56] = system: ACHN renal
[57] = system: NCI-H460 lung
[58] = system: NCI-H522 lung
[59] = system: SNB-19 CNS

## Fc1cccc(F)c1C1SCc2nc3cc4ccccc4cc3n21 (centres undefined)
[1]
  TGI: > 100 µM
[2]
  TGI: > 100 µM
[3]
  TGI: > 100 µM
[4]
  TGI: > 100 µM
[5]
  TGI: 81.5 µM
[6]
  TGI: > 100 µM
[7]
  TGI: 36.6 µM
[8]
  TGI: > 100 µM
[9]
  TGI: 67.3 µM
[10]
  TGI: > 100 µM
[11]
  TGI: 80.3 µM
[12]
  TGI: > 100 µM
[13]
  TGI: > 100 µM
[14]
  TGI: > 100 µM
[15]
  TGI: > 100 µM
[16]
  TGI: > 100 µM
[17]
  TGI: > 100 µM
[18]
  TGI: > 100 µM
[19]
  TGI: > 100 µM
[20]
  TGI: > 100 µM
[21]
  TGI: > 100 µM
[22]
  TGI: > 100 µM
[23]
  TGI: > 100 µM
[24]
  TGI: 55 µM
[25]
  TGI: > 100 µM
[26]
  TGI: > 100 µM
[27]
  TGI: > 100 µM
[28]
  TGI: > 100 µM
[29]
  TGI: > 100 µM
[30]
  TGI: > 100 µM
[31]
  TGI: 72.9 µM
[32]
  TGI: 72.3 µM
[33]
  TGI: 48.6 µM
[34]
  TGI: 73.7 µM
[35]
  TGI: > 100 µM
[36]
  TGI: > 100 µM
[37]
  TGI: > 100 µM
[38]
  TGI: > 100 µM
[39]
  TGI: > 100 µM
[40]
  TGI: > 100 µM
[41]
  TGI: 45.1 µM
[42]
  TGI: 36.7 µM
[43]
  TGI: 62.4 µM
[44]
  TGI: > 100 µM
[45]
  TGI: > 100 µM
[46]
  TGI: > 100 µM
[47]
  TGI: > 100 µM
[48]
  TGI: > 100 µM
[49]
  TGI: 54.1 µM
[50]
  TGI: > 100 µM
[51]
  TGI: 69.2 µM
[52]
  TGI: > 100 µM

## COc1cc(/C=C2\CCC/C(=C\c3ccc(OC(=O)CCCCC4CCSS4)c(OC)c3)C2=O)ccc1OC(=O)CCCCC1CCSS1 (centres undefined)
[1]
  TGI: > 100 µM
[2]
  TGI: > 100 µM
[53]
  TGI: > 100 µM
[3]
  TGI: > 100 µM
[4]
  TGI: > 100 µM
[5]
  TGI: > 100 µM
[6]
  TGI: > 100 µM
[7]
  TGI: > 100 µM
[8]
  TGI: > 100 µM
[9]
  TGI: > 100 µM
[10]
  TGI: > 100 µM
[54]
  TGI: > 100 µM
[55]
  TGI: > 100 µM
[11]
  TGI: > 100 µM
[12]
  TGI: > 100 µM
[13]
  TGI: > 100 µM
[15]
  TGI: > 100 µM
[16]
  TGI: > 100 µM
[17]
  TGI: > 100 µM
[18]
  TGI: > 100 µM
[19]
  TGI: > 100 µM
[56]
  TGI: > 100 µM
[20]
  TGI: > 100 µM
[21]
  TGI: > 100 µM
[22]
  TGI: > 100 µM
[23]
  TGI: > 100 µM
[24]
  TGI: > 100 µM
[25]
  TGI: > 100 µM
[26]
  TGI: > 100 µM
[27]
  TGI: > 100 µM
[28]
  TGI: > 100 µM
[29]
  TGI: > 100 µM
[30]
  TGI: > 100 µM
[31]
  TGI: > 100 µM
[32]
  TGI: > 100 µM
[33]
  TGI: > 100 µM
[34]
  TGI: > 100 µM
[35]
  TGI: > 100 µM
[57]
  TGI: > 100 µM
[58]
  TGI: > 100 µM
[36]
  TGI: > 100 µM
[37]
  TGI: > 100 µM
[39]
  TGI: > 100 µM
[41]
  TGI: > 100 µM
[42]
  TGI: > 100 µM
[43]
  TGI: > 100 µM
[44]
  TGI: > 100 µM
[45]
  TGI: > 100 µM
[46]
  TGI: > 100 µM
[47]
  TGI: > 100 µM
[48]
  TGI: > 100 µM
[50]
  TGI: > 100 µM
[52]
  TGI: > 100 µM
[59]
  TGI: > 100 µM

## OC1c2[nH]c3ccccc3c2CCN2CCCCC12 (centres undefined)
[1]
  TGI: > 100 µM
[2]
  TGI: > 100 µM
[3]
  TGI: > 100 µM
[4]
  TGI: > 100 µM
[5]
  TGI: > 100 µM
[6]
  TGI: > 100 µM
[7]
  TGI: > 100 µM
[8]
  TGI: > 100 µM
[9]
  TGI: > 100 µM
[10]
  TGI: > 100 µM
[55]
  TGI: > 100 µM
[11]
  TGI: > 100 µM
[12]
  TGI: > 100 µM
[13]
  TGI: > 100 µM
[14]
  TGI: > 100 µM
[15]
  TGI: > 100 µM
[16]
  TGI: > 100 µM
[17]
  TGI: > 100 µM
[18]
  TGI: > 100 µM
[19]
  TGI: > 100 µM
[56]
  TGI: > 100 µM
[20]
  TGI: > 100 µM
[21]
  TGI: > 100 µM
[22]
  TGI: > 100 µM
[23]
  TGI: > 100 µM
[24]
  TGI: > 100 µM
[25]
  TGI: > 100 µM
[26]
  TGI: > 100 µM
[27]
  TGI: > 100 µM
[28]
  TGI: > 100 µM
[29]
  TGI: > 100 µM
[30]
  TGI: > 100 µM
[31]
  TGI: > 100 µM
[32]
  TGI: > 100 µM
[33]
  TGI: > 100 µM
[34]
  TGI: > 100 µM
[35]
  TGI: > 100 µM
[57]
  TGI: > 100 µM
[58]
  TGI: > 100 µM
[36]
  TGI: > 100 µM
[37]
  TGI: > 100 µM
[38]
  TGI: > 100 µM
[39]
  TGI: > 100 µM
[40]
  TGI: > 100 µM
[41]
  TGI: > 100 µM
[42]
  TGI: > 100 µM
[43]
  TGI: > 100 µM
[45]
  TGI: > 100 µM
[46]
  TGI: > 100 µM
[47]
  TGI: > 100 µM
[48]
  TGI: > 100 µM
[49]
  TGI: > 100 µM
[50]
  TGI: > 100 µM
[51]
  TGI: > 100 µM
[52]
  TGI: > 100 µM
[59]
  TGI: > 100 µM

## CC(C)(Br)C(Br)CCC1(C(Br)CBr)CO1 (centres undefined)
[1]
  TGI: > 10 µM
[2]
  TGI: > 10 µM
[3]
  TGI: > 10 µM
[4]
  TGI: > 10 µM
[5]
  TGI: > 10 µM
[6]
  TGI: > 10 µM
[7]
  TGI: > 10 µM
[9]
  TGI: > 10 µM
[10]
  TGI: > 10 µM
[54]
  TGI: > 10 µM
[55]
  TGI: > 10 µM
[11]
  TGI: > 10 µM
[12]
  TGI: > 10 µM
[13]
  TGI: > 10 µM
[14]
  TGI: > 10 µM
[15]
  TGI: > 10 µM
[16]
  TGI: > 10 µM
[17]
  TGI: > 10 µM
[18]
  TGI: > 10 µM
[19]
  TGI: > 10 µM
[56]
  TGI: > 10 µM
[20]
  TGI: > 10 µM
[22]
  TGI: > 10 µM
[23]
  TGI: > 10 µM
[25]
  TGI: > 10 µM
[26]
  TGI: > 10 µM
[28]
  TGI: > 10 µM
[29]
  TGI: > 10 µM
[30]
  TGI: > 10 µM
[31]
  TGI: > 10 µM
[32]
  TGI: > 10 µM
[33]
  TGI: > 10 µM
[34]
  TGI: > 10 µM
[35]
  TGI: > 10 µM
[58]
  TGI: > 10 µM
[37]
  TGI: > 10 µM
[38]
  TGI: > 10 µM
[39]
  TGI: > 10 µM
[40]
  TGI: > 10 µM
[41]
  TGI: > 10 µM
[42]
  TGI: > 10 µM
[43]
  TGI: > 10 µM
[44]
  TGI: > 10 µM
[46]
  TGI: > 10 µM
[47]
  TGI: > 10 µM
[48]
  TGI: > 10 µM
[49]
  TGI: > 10 µM
[50]
  TGI: > 10 µM
[51]
  TGI: > 10 µM
[52]
  TGI: > 10 µM
[59]
  TGI: > 10 µM

## O=C(O)c1cccc(SSc2cccc(C(=O)O)c2)c1
[1]
  TGI: > 100 µM
[2]
  TGI: > 100 µM
[3]
  TGI: > 100 µM
[4]
  TGI: > 100 µM
[5]
  TGI: > 100 µM
[6]
  TGI: > 100 µM
[7]
  TGI: > 100 µM
[8]
  TGI: > 100 µM
[9]
  TGI: > 100 µM
[10]
  TGI: > 100 µM
[54]
  TGI: > 100 µM
[55]
  TGI: > 100 µM
[11]
  TGI: > 100 µM
[12]
  TGI: > 100 µM
[13]
  TGI: > 100 µM
[14]
  TGI: > 100 µM
[15]
  TGI: > 100 µM
[16]
  TGI: > 100 µM
[17]
  TGI: > 100 µM
[18]
  TGI: > 100 µM
[19]
  TGI: > 100 µM
[56]
  TGI: > 100 µM
[21]
  TGI: > 100 µM
[22]
  TGI: > 100 µM
[23]
  TGI: > 100 µM
[24]
  TGI: > 100 µM
[25]
  TGI: > 100 µM
[26]
  TGI: > 100 µM
[27]
  TGI: > 100 µM
[28]
  TGI: > 100 µM
[29]
  TGI: > 100 µM
[30]
  TGI: > 100 µM
[31]
  TGI: > 100 µM
[32]
  TGI: > 100 µM
[33]
  TGI: > 100 µM
[34]
  TGI: > 100 µM
[35]
  TGI: > 100 µM
[57]
  TGI: > 100 µM
[58]
  TGI: > 100 µM
[36]
  TGI: > 100 µM
[37]
  TGI: > 100 µM
[38]
  TGI: > 100 µM
[39]
  TGI: > 100 µM
[40]
  TGI: > 100 µM
[41]
  TGI: > 100 µM
[42]
  TGI: > 100 µM
[43]
  TGI: 81 µM
[44]
  TGI: > 100 µM
[45]
  TGI: > 100 µM
[46]
  TGI: > 100 µM
[47]
  TGI: > 100 µM
[48]
  TGI: > 100 µM
[50]
  TGI: > 100 µM
[51]
  TGI: > 100 µM
[52]
  TGI: > 100 µM
[59]
  TGI: > 100 µM

From PubChem BioAssay (NCI)
